Results reported in patent US8653082B2, “6-phenyl-2-[((piperidin-4-ylmethyl)-piperazin-1YL) or piperazin 1-ylmethyl)-piperidin-1-yl)]-imidazo[2,1-B][1,3,4]thiadiazole derivatives and their use” (Urifer Ltd., priority 2009, dated 2014).

Legend:
Format in all cases: cell-based
FS (normal fibroblasts) = assay: XTT cell viability, FS (normal fibroblasts); conditions: Fibroblast; FS normal (non malignant) fibroblasts; XTT test; compound in 30 mM HEPES pH=7, 0.25 to 10 μM
Experimental: (§1) The effect of the compounds Z522-0249, Z522-0251, Erbitux and E-626-0342 on the growth profile of cancer cells which express Fer was tested. The cells that were tested were: the colon cancer cell lines HT29, HCT 116, RKO, SW620, and SW48 and the liver cancer cell line Hep3B. The effect of each of the three compounds (Z522-0249, Z522-0251 and E-626-0342) on FS11 cells, a non malingnant fibroblastic cell line, was also studied.
(§2) Cells were seeded in 96 well microplates and were left to grow untreated overnight. Z522-0249 and Z522-0251 were dissolved in 30 mM HEPES pH=7 and were then added to each well in a dose dependent manner from 0.25 to 10 μM. E626-0342 was dissolved in DMSO and was then added to each well in a dose dependent manner from 0.1 to 5 μM. The concentration of DMSO in each well was 0.4% v/v. Untreated cells and cells subjected to 30 mM HEPEs pH=7 or 0.4% DMSO alone, served as controls. The number of viable cells in each well was determined 48, 72, and 96 hours after compound addition, using the XTT test (Berridge, M. V. et al, 2005).

SW620 = assay: XTT cell viability, SW620 colon cancer cells; conditions: Homo sapiens, SW-620; SW620 colon cancer cell line; XTT test; compound in 30 mM HEPES pH=7, 0.25 to 10 μM; read-out: EC50 values on colon and liver cancer cells, SW620
Experimental: as §1, §2

HT29 = assay: XTT cell viability, HT29 colon cancer cells; conditions: Homo sapiens, HT-29; HT29 colon cancer cell line; XTT test; compound in 30 mM HEPES pH=7, 0.25 to 10 μM; read-out: EC50 values on colon and liver cancer cells, HT29
Experimental: as §1, §2

SW48 = assay: XTT cell viability, SW48 colon cancer cells; conditions: Homo sapiens; SW48 colon cancer cell line; XTT test; compound in 30 mM HEPES pH=7, 0.25 to 10 μM; read-out: EC50 values on colon and liver cancer cells, SW48
Experimental: as §1, §2

RKO = assay: XTT cell viability, RKO colon cancer cells; conditions: Homo sapiens; RKO colon cancer cell line; XTT test; compound in 30 mM HEPES pH=7, 0.25 to 10 μM; read-out: EC50 values on colon and liver cancer cells, RKO
Experimental: as §1, §2

Hep3B = assay: XTT cell viability, Hep3B liver cancer cells; conditions: Homo sapiens; Hep3B liver cancer cell line; XTT test; compound in 30 mM HEPES pH=7, 0.25 to 10 μM; read-out: EC50 values on colon and liver cancer cells, Hep3B
Experimental: as §1, §2

HCT116 = assay: XTT cell viability, HCT116 colon cancer cells; conditions: Homo sapiens, HCT-116; HCT116 colon cancer cell line; XTT test; compound in 30 mM HEPES pH=7, 0.25 to 10 μM; read-out: EC50 values on colon and liver cancer cells, HCT116
Experimental: as §1, §2

| SMILES | EC50 (FS (normal fibroblasts)) [µM] | EC50 (SW620) [µM] | EC50 (HT29) [µM] | EC50 (SW48) [µM] | EC50 (RKO) [µM] | EC50 (Hep3B) [µM] | EC50 (HCT116) [µM] |
| --- | --- | --- | --- | --- | --- | --- | --- |
| CC(C)c1ccc(-c2cn3nc(N4CCN(CC5CCN(C)CC5)CC4)sc3n2)cc1 [Z522-0249, 6-(4-isopropylphenyl)-2-{4-[(1-methylpiperidin-4-yl)methyl]piperazin-1-yl}imidazo[2,1-b][1,3,4]thiadiazole] | 10 | 0.5 to 1 | 2 | 0.5 to 1 | 1 to 2 | 1 to 2 | 3 |
| CC(C)c1ccc(-c2cn3nc(N4CCC(CN5CCN(C)CC5)CC4)sc3n2)cc1 [Z522-0251, 6-(4-isopropyl-phenyl)-2-{4-[(4-methyl-piperazin-1-yl)methyl]piperidin-1-yl}imidazo[2,1-b][1,3,4]thiadiazole] | – | 0.5 to 1 | 2 to 3 | 0.5 to 1 | 2 to 3 | 1 to 2 | 3 to 4 |
